# Patent US20240327463A1, “ANTIBACTERIAL PRODUCTS” (priority 2017, published 2024)
# Bridge positions count the residues as written; N and C are the ends. Square brackets hold non-standard residues; d marks the D form. Peptide text beside a SMILES is read from it. ξ: configuration not given here. dNMeF = CN[C@H](Cc1ccccc1)C(=O)O; Ile(3ξ) = CCC(C)[C@H](N)C(=O)O; Nva = CCC[C@H](N)C(=O)O
# Experiments:
# [1] = tested on: VRE 1004; type: cell-based, Enterococcus faecalis
# Protocol: (§1) Bacteria were grown on Mueller Hinton broth (oxoid). All incubations were at 37° C. Dilutions were carried out using Mueller Hinton. […] This process was repeated up to well 11. […] This was repeated three times. […] Results are tabulated in the Examples.
# [2] = tested on: VRE 1001; type: cell-based, Enterococcus faecalis
# Protocol: as §1
# [3] = tested on: VRE 1002; type: cell-based, Enterococcus faecalis
# Protocol: as §1
# [4] = tested on: VRE 1008; type: cell-based, Enterococcus faecalis
# Protocol: as §1
# [5] = tested on: MRSA ATCC 33591; details: for MIC (MRSA): ATCC 33591
# Protocol: (§2) For MIC testing all peptides were dissolved in DMSO (according to the method of L. L. Ling, et al., Nature 2015, 517, 455-459). Bacteria were grown on Mueller Hinton broth (oxoid). All incubations were at 37° C. Dilutions were carried out using Mueller Hinton. 100 μl of autoclaved Mueller Hinton broth was added to wells 2-12 on a 96-well plate. 200 μl of the peptide was added to well one at a concentration of 512 μg/ml. 100 μl of peptide in well one was taken up and pipetted into well two. The mixture was then mixed via pipetting before 100 μl was taken up and pipetted into well three. This process was repeated up to well 11. […] This was repeated three times. The 96-well plates were then incubated for 24 hours. The MIC was determined to be the lowest concentration at which there was no growth visible.
# [6] = tested on: MRSA ATCC 700699; test: microbe, parasite or virus in culture; details: ATCC 700699
# Protocol: as §2
# [7] = tested on: MRSA DM21455 (eye); test: microbe, parasite or virus in culture; details: DM21455 (eye)
# Protocol: as §2
# [8] = tested on: Staphylococcus aureus ATCC 29213; test: microbe, parasite or virus in culture; details: ATCC 29213
# Protocol: as §2
# [9] = tested on: VRE ATCC 29212; test: microbe, parasite or virus in culture; details: ATCC 29212
# Protocol: as §2
# [10] = tested on: MRSA DR 42412 (sputum); test: microbe, parasite or virus in culture; details: DR 42412 (sputum)
# Protocol: as §2
# [11] = tested on: VRE ATCC 700802; test: microbe, parasite or virus in culture; details: ATCC 700802
# Protocol: as §2
# [12] = tested on: MRSA 1003; type: cell-based, Staphylococcus aureus
# Protocol: as §1
# [13] = tested on: SE12228; type: cell-based
# Protocol: as §1
# [14] = tested on: Staphylococcus saprophyticus ATCC 15305; type: cell-based; details: ATCC 15305
# Protocol: as §1
# [15] = tested on: Staphylococcus saprophyticus ATCC 49907; type: cell-based; details: ATCC 49907
# Protocol: as §1
# [16] = tested on: Staphylococcus saprophyticus ATCC 49453; type: cell-based; details: ATCC 49453
# Protocol: as §1
# [17] = tested on: Bacillus Subtilis ATCC 6633; type: cell-based
# Protocol: as §1
# [18] = tested on: Bacillus Cereus ATCC 11788; type: cell-based
# Protocol: as §1
# [19] = tested on: Staphylococcus saprophyticus ATCC BAA 750; type: cell-based; details: ATCC BAA 750
# Protocol: as §1
MIC against MRSA ATCC 33591 ([5]; MRSA ATCC 33591),Structure (SMILES),MIC [1],MIC [2],MIC [3],MIC [4],MIC (MRSA) [5],MIC [6],MIC [7],MIC [8],MIC [9],MIC [10],MIC [11],MIC [12],MIC [13],MIC [14],MIC [15],MIC [16],MIC [17],MIC [18],MIC [19]
–,"CC[C@@H](C)[C@@H](NC(=O)[C@@H](CCC(N)=O)NC(=O)[C@H](CCCNC(=N)N)NC(=O)[C@@H](NC(=O)[C@@H](Cc1ccccc1)NC)[C@@H](C)CC)C(=O)N[C@H](C(=O)N[C@@H](CO)C(=O)N[C@H]1C(=O)N[C@@H](C)C(=O)N[C@@H](CC(C)C)C(=O)N[C@@H]([C@@H](C)CC)C(=O)O[C@H]1C)[C@@H](C)CC [Compound 25, Arg3-Leu10-teixobactin] (H-[dNMeF]IR[dQ][dI]IS[dT]ALI; ester 8-C)",<0.0625 µg/mL,0.25 µg/mL,0.5 µg/mL,0.125 µg/mL,0.125 µg/mL,0.5 µg/mL,0.03125 µg/mL,0.25 µg/mL,0.5 µg/mL,<0.0625 µg/mL,0.5 µg/mL,<0.0625 µg/mL,<0.0625 µg/mL,<0.0625 µg/mL,<0.0625 µg/mL,<0.0625 µg/mL,<0.0625 µg/mL,<0.0625 µg/mL,<0.0625 µg/mL
1 µg/mL,"CC[C@@H](C)[C@@H](NC(=O)[C@@H](CCC(N)=O)NC(=O)[C@H](CCCNC(=N)N)NC(=O)[C@@H](NC(=O)[C@@H](Cc1ccccc1)NC)[C@@H](C)CC)C(=O)N[C@H](C(=O)N[C@@H](CO)C(=O)N[C@H]1C(=O)N[C@@H](CCCNC(=N)N)C(=O)N[C@@H](CC(C)C)C(=O)N[C@@H]([C@@H](C)CC)C(=O)O[C@H]1C)[C@@H](C)CC [Compound 29, Arg3-Arg9-Leu10-teixobactin] (H-[dNMeF]IR[dQ][dI]IS[dT]RLI; ester 8-C)",0.5 µg/mL,0.5 µg/mL,1 µg/mL,0.5 µg/mL,–,1 µg/mL,1 µg/mL,1 µg/mL,1 µg/mL,0.25 µg/mL,1 µg/mL,2 µg/mL,<0.0625 µg/mL,<0.0625 µg/mL,<0.0625 µg/mL,<0.0625 µg/mL,<0.0625 µg/mL,1 µg/mL,<0.0625 µg/mL
–,"CCC(C)[C@@H]1NC(=O)[C@H](C)NC(=O)[C@H](NC(=O)[C@H](CO)NC(=O)[C@@H](NC(=O)[C@H](NC(=O)[C@@H](CCC(N)=O)NC(=O)[C@H](CCCNC(=N)N)NC(=O)[C@@H](NC(=O)[C@@H](Cc2ccccc2)NC)[C@@H](C)CC)[C@H](C)CC)[C@@H](C)CC)[C@H](C)OC(=O)[C@H]([C@@H](C)CC)NC1=O (some centres unmarked) [Compound 32, Arg3-Ile10-teixobactin] (H-[dNMeF]IR[dQ][dI]IS[dT]A[Ile(3ξ)]I; ester 8-C)",1 µg/mL,1 µg/mL,1 µg/mL,1 µg/mL,0.25 µg/mL,1 µg/mL,0.25 µg/mL,0.5 µg/mL,1 µg/mL,0.125 µg/mL,1 µg/mL,0.125 µg/mL,<0.0625 µg/mL,<0.0625 µg/mL,<0.0625 µg/mL,<0.0625 µg/mL,<0.0625 µg/mL,0.125 µg/mL,<0.0625 µg/mL
–,"CCC[C@@H]1NC(=O)[C@H](CCCNC(=N)N)NC(=O)[C@H](NC(=O)[C@H](CO)NC(=O)[C@@H](NC(=O)[C@H](NC(=O)[C@@H](CCC(N)=O)NC(=O)[C@H](CO)NC(=O)[C@@H](NC(=O)[C@@H](Cc2ccccc2)NC)[C@@H](C)CC)[C@H](C)CC)[C@@H](C)CC)[C@H](C)OC(=O)[C@H]([C@@H](C)CC)NC1=O [Compound 47, Arg9-Nva10-teixobactin] (H-[dNMeF]IS[dQ][dI]IS[dT]R[Nva]I; ester 8-C)",–,–,–,–,0.5 µg/mL,–,–,–,–,–,–,–,–,–,–,–,–,–,–
–,"CCC[C@@H]1NC(=O)[C@H](C)NC(=O)[C@H](NC(=O)[C@H](CO)NC(=O)[C@@H](NC(=O)[C@H](NC(=O)[C@@H](CCCNC(=N)N)NC(=O)[C@H](CCCNC(=N)N)NC(=O)[C@@H](NC(=O)[C@@H](Cc2ccccc2)NC)[C@@H](C)CC)[C@H](C)CC)[C@@H](C)CC)[C@H](C)OC(=O)[C@H]([C@@H](C)CC)NC1=O [Compound 48, Arg3-D-Arg4-Nva10-teixobactin] (H-[dNMeF]IR[dR][dI]IS[dT]A[Nva]I; ester 8-C)",–,–,–,–,>64 µg/mL,–,–,–,–,–,–,–,–,–,–,–,–,–,–
